The text below walks through data of ChEMBL document CHEMBL1201862, “PubChem BioAssay data set” (2004).

The subject of assay [1] is Candida albicans. As to the kind of experiment: growth inhibition of azole-resistant C. albicans, dose response, CaCi-8 strain, Alamar Blue, dry powder, set 2 (AID 488909). In kind it is functional, organism-based. (The colour change of resazurin is a common sign of viable cells or microbes.)
For assay [2], the system named is Candida albicans. As to the kind of experiment: growth inhibition of resistant C. albicans, dose response, CaCi-8 strain, fluconazole, dry powder, set 4 (AID 488950). In kind it is functional, organism-based.
In assay [3] the test system is Candida albicans. Kind of assay: fluconazole resistance reversal in C. albicans, dose response, CaCi-2 strain, Alamar Blue, dry powder, set 4 (AID 488943). Format: functional, organism-based.
The target of assay [4] is T1, Sentrin-specific protease 6 (Homo sapiens, UniProt Q9GZR1).
T1 sequence (Q9GZR1 whole entry): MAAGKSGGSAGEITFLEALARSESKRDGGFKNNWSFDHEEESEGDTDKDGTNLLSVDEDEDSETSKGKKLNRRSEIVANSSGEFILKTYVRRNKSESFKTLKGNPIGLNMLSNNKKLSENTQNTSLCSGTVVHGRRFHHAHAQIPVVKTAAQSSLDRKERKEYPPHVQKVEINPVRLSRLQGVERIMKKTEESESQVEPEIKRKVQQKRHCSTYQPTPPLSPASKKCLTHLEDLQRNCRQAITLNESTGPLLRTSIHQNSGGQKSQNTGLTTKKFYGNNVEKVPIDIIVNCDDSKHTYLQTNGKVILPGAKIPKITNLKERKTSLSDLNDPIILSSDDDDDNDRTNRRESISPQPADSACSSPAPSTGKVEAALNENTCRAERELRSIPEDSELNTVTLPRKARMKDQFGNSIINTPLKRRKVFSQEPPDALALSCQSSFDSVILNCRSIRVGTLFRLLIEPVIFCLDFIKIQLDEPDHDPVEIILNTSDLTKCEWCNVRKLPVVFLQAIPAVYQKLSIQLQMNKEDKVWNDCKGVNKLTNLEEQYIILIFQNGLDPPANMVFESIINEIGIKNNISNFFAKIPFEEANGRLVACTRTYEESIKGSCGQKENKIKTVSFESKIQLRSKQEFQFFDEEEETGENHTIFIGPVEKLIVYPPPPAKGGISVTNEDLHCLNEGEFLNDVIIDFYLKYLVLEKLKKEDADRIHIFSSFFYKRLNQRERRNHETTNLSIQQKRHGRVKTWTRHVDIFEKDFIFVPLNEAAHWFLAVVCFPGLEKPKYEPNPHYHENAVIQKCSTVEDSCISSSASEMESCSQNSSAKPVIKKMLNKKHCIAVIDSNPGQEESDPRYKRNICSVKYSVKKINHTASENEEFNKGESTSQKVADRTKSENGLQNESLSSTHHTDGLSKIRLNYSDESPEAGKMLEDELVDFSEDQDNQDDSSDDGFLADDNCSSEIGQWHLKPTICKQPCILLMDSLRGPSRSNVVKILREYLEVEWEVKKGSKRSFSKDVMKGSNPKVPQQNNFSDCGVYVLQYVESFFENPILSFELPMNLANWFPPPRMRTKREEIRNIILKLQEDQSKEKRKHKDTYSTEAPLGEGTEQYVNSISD
As to the kind of experiment: SAR Analysis of small molecule inhibitors of Sentrin-specific protease 6 (SENP6) using a Luminescent assay. [Related pubchem assays (depositor defined):AID2582, AID2599]. In kind it is functional.

The target of assay [5] is T2, Sentrin-specific protease 7 (Homo sapiens, UniProt Q9BQF6).
T2 sequence (Q9BQF6 whole entry): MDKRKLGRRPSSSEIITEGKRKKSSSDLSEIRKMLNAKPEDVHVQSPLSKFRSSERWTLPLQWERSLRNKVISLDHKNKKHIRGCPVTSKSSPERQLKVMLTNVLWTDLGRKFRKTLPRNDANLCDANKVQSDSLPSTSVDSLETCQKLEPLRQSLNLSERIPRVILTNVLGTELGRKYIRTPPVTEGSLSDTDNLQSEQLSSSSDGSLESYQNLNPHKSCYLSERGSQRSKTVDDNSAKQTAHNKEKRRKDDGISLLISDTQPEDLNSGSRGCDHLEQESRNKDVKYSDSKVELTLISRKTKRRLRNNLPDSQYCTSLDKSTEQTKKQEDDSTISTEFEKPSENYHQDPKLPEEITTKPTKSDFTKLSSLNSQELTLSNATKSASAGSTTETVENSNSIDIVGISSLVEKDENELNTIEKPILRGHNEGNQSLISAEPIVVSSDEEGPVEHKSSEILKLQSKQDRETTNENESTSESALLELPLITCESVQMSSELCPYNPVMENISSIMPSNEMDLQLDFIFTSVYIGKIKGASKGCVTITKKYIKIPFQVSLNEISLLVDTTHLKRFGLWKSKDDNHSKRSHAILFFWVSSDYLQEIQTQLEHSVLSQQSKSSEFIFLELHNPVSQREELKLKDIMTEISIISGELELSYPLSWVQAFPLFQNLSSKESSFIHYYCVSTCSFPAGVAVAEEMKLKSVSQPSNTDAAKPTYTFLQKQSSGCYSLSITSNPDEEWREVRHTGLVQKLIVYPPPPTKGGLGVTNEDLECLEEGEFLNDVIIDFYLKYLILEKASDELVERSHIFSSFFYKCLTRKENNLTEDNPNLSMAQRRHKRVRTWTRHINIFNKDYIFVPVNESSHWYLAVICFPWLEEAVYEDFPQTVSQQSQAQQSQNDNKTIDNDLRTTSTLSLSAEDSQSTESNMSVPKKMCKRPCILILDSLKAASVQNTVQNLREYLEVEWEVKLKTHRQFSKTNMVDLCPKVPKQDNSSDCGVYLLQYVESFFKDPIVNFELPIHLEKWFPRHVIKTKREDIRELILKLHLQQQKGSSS
Kind of assay: SENP7 protease inhibitors, SAR follow-up, biochemical, luminescence (AID 504497). In kind it is functional.

For assay [6], the target named is T3, Caspase-3 (Homo sapiens, UniProt P42574).
T3 sequence (P42574 whole entry): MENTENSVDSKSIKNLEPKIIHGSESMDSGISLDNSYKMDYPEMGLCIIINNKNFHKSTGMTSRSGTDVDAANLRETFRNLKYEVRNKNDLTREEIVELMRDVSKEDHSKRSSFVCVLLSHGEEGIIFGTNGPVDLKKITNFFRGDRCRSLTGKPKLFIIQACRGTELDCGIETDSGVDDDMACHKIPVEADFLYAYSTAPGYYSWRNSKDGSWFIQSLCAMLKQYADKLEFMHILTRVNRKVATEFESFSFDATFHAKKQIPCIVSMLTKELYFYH
Kind of assay: SAR Analysis of small molecule inhibitors of Sentrin-specific proteases (SENPs) using a Caspase-3 Selectivity assay. [Related pubchem assays (depositor defined):AID2540, AID2599, AID434973, AID489001]. In kind it is functional.

In assay [7] the target is T4, Sentrin-specific protease 8 (Homo sapiens, UniProt Q96LD8).
T4 sequence (Q96LD8 whole entry): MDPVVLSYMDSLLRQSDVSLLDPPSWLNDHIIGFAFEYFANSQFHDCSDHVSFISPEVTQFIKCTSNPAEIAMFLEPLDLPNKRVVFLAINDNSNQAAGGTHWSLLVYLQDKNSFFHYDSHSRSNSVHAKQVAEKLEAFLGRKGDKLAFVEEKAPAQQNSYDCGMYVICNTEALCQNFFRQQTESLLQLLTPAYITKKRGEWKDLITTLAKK
Kind of assay: SENP8 protease inhibitors, SAR follow-up, biochemical, luminescence (AID 504501). In kind it is functional.

Assay [8] has as its system HT-1080. As to the kind of experiment: cytotoxicity in HT1080 fibrosarcoma cells, cell-based, fluorescence readout (AID 620). To be noted: Homo sapiens. In kind it is functional.
Assay [9] deals with T3, Caspase-3. In kind it is functional.
Assay [10] addresses T5, Heat shock factor protein 1 (Mus musculus, UniProt P38532).
T5 sequence (P38532 whole entry): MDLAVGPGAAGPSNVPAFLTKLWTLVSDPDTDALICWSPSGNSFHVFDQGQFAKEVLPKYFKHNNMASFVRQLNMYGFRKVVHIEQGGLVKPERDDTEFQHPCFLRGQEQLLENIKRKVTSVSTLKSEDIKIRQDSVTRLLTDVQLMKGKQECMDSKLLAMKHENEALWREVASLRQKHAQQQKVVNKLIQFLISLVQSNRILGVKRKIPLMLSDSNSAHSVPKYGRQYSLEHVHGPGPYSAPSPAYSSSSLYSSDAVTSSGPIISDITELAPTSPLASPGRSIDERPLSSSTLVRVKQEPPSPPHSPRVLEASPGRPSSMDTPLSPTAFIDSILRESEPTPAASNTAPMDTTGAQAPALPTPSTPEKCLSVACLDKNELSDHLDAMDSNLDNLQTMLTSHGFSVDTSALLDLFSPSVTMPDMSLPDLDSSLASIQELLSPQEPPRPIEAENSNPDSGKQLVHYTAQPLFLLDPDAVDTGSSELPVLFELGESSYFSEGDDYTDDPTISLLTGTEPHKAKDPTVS
As to the kind of experiment: inhibition of MG132-induced HSE-luciferase signal, confirmation, cell-based, NIH3T3, luminescence, dose retest (AID 2382).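 Also: NIH3T3 fibroblasts with HSF1-driven luciferase reporter stressed by proteasome inhibitor MG132; luminescence from HSF1-driven luciferase expression after 8 hours of MG132 stress.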 Format: functional.

Assay [11] deals with T2, Sentrin-specific protease 7. Format: functional.
The target of assay [12] is T1, Sentrin-specific protease 6. In kind it is functional.
Assay [13] addresses T4, Sentrin-specific protease 8. In kind it is functional.
Assay [14] deals with Luciferin 4-monooxygenase (Photinus pyralis, UniProt P08659). Kind of assay: Counter Screen for Luciferase-based Assay Positives. [Related pubchem assays: 620, 618, 411 ]. On the technique in general: A counterscreen serves to expose hits that act by an unwanted route or on another target.
Sequence of Luciferin 4-monooxygenase (P08659 whole entry): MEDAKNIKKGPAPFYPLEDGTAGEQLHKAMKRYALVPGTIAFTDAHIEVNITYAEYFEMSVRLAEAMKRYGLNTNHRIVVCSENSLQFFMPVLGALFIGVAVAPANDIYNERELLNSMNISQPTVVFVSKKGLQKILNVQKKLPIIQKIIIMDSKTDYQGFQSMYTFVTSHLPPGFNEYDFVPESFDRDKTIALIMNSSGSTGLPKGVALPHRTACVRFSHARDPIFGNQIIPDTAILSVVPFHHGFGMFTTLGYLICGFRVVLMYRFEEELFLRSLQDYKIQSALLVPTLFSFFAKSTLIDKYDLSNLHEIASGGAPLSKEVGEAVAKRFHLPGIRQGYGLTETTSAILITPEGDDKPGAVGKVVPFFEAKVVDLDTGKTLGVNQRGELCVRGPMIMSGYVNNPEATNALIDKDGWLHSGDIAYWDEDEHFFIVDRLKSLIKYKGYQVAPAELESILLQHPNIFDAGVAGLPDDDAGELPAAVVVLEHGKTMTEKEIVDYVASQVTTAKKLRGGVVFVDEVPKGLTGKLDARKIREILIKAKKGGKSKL
Assay [15] is described as follows: Luminescence Cell-Based Dose Response HTS to Identify Activators of Luciferase Translation or Activity in H4 […] Cells. [Related pubchem assays: 1829 (Project Summary), 1814 (Primary HTS)]. Format: functional.
In assay [16] the test system is CHO. As to the kind of experiment: cytotoxicity in TLR9-MyD88 CHO cells, dose response, cytotoxicity control for TLR9-MyD88 binding inhibitor project, cell-based, luminescence (AID 588339).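 Also: CHO cells stably coexpressing TLR9 and MyD88 fusions from primary screen; compound exposure lasted 48 hours before viability readout.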 Format: functional, hamster. The following applies: Cricetulus griseus.
In assay [17] the test system is INS1. Kind of assay: beta cell apoptosis inhibitors, cytokine rescue, dose response, luminescence, retest (AID 449756).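 Also: cell death triggered by IL-1 beta plus TNF-alpha plus IFN-gamma mixture; protective hits raise ATP signal compared with cytokine alone wells.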 The following applies: Rattus norvegicus. In kind it is functional, cell-based.
Assay [18] has as its target E3 ubiquitin-protein ligase Mdm2 (Homo sapiens, UniProt Q00987). As to the kind of experiment: enhancers of MDM2-luciferase reporter signal, concentration-effect titration, project on inhibitors of MDM2 ubiquitin ligase, cellular assay, luminescent readout, 384-well plate format (AID 1394).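 Also: MDM2 E3 inhibitors raise luminescence so EC50 is for signal enhancement.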 In kind it is functional. (In general: Reporter assays use an easily measured gene product as a stand-in for the process of interest.)

A short description of assay [19]: C. albicans growth with fluconazole, confirmation, fluorescence, retest (AID 2467). In kind it is functional, cell-based.
Assay [20] can be described thus: NIH-3T3 fibroblast cytotoxicity, dose response, cytotoxicity control, cell-based, fluorescence, Alamar Blue, secondary assay (AID 2327).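 Also: NIH-3T3 mouse fibroblasts cultured with fluconazole at 8 µg/mL.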 In kind it is functional.
Assay [21] relates to H4. Kind of assay: Luminescence Cell-Based Dose Response HTS to Identify Activators of 5'UTR Stem-Loop Driven Prion Protein mRNA Translation in H4 Neuroglioblastoma Cells. [Related pubchem assays: 1829 (Project Summary), 1814 (Primary HTS)]. Format: functional. The following applies: Homo sapiens.
Assay [22] is described as follows: microbe, parasite or virus in culture. Format: functional. To be noted: Mycobacterium tuberculosis.
Assay [23] is described as follows: Luminescence Cell-Based Dose Confirmation HTS to Identify Activators of 5'UTR Stem-Loop Driven Alpha-Synuclein mRNA Translation in H4 Neuroglioblastoma Cells. [Related pubchem assays: 1829 (Project Summary), 1814 (Primary HTS)]. In kind it is functional.

Calls of active or inactive are those of the source. Bounds are passed on as bounds.

One may read the AC50 as the concentration giving half of the maximal activity seen. A word on the IC50: it is the midpoint of a concentration-inhibition curve. As a reminder, the EC50 is the concentration giving half of the maximal effect.

Sequence of E3 ubiquitin-protein ligase Mdm2 (Q00987 whole entry): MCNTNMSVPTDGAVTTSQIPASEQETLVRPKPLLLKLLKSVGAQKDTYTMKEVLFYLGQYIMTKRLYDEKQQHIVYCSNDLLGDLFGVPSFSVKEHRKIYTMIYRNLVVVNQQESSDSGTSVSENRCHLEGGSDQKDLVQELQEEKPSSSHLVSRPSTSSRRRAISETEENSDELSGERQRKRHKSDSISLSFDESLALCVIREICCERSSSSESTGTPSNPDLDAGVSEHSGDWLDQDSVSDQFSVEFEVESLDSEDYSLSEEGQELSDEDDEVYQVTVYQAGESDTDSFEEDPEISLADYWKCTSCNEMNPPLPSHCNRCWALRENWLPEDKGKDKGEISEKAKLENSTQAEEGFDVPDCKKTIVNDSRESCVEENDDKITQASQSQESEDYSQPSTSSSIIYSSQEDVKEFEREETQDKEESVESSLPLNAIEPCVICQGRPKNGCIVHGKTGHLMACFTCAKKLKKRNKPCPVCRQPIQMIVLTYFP

Regarding `O=C(Nc1ccc(Cl)cc1)N1CCN(c2ccnc3cc(Cl)ccc23)CC1`, the AC50 is 0.295 µM (active) in assay [1], 1.56 µM (active) in [2] and 1.16 µM (active) in [3].
Consider `N#Cc1ccc(-c2nc(/C=C/c3ccc(F)cc3)no2)cc1`, for which the IC50 in assay [4], in [5], in assay [6] and in assay [7] was > 99 µM (inactive) throughout.
In the case of `CC(C)CC(=O)N1CCN(c2ccnc3cc(Cl)ccc23)CC1`, the concentration at half-maximal activity (AC50) in [1] is 12.7 µM (active); in assay [2], 6.04 µM (active); in assay [3], 5.54 µM (active).
For the molecule `CC(=O)N(/N=C1\Sc2ccccc2C1=O)c1ccc(C)cc1C`, the concentration for half-maximal inhibition (IC50) in [4] is 5.49 µM (active); in assay [5], 23.3 µM (active); in [9], 33 µM (active); in assay [6] it was 7.42 µM (active); in assay [11] it was 21.5 µM (active); in assay [12], 7.1 µM (active). The results for the IC50 in assay [13] and in assay [7] were 86.8 µM (active) and 13 µM (active), respectively. For the same molecule, the EC50 is > 50 µM (not active) in assay [8], < 0.16 µM (active) in assay [10] and < 0.2 µM (active) in [14].
For the molecule `C=C1C(=O)O[C@@H]2C[C@@H](C)[C@@H]3C4OC4C(=O)[C@@]3(C)[C@@H](O)[C@H]12` (stereo not given in full), the EC50 in assay [15] is > 120 µM (not active); in assay [18] it was 11.6 µM (not active); in [19], 0.644 µM (active); in assay [20], 6.66 µM (inconclusive); in [21], > 120 µM (not active); in [23], > 120 µM (not active). Moreover, the 50% inhibitory concentration (IC50) in assay [16] was 2.43 µM (active). In assay [17], the concentration at half-maximal activity (AC50) is 8.02 µM (active). Besides, the CC50 in assay [22] is 4.92 µM (active).
